Laboratory results from US20200246322A1, “METHOD FOR TREATING GLUTEN-RELATED ALLERGIES AND I[…] WITH LOPERAMIDE” (priority 2019, published 2020).

Tested on: gluten intolerance
Experiment: treating/preventing gluten intolerance with oral loperamide (experience of the inventor)
Format: in vivo, patient
Details: dosage titrated, as long as it is the type of gluten intolerance that responds to loperamide and the proper daily dosage is adhered to
Excerpt: The present invention may include a new use of the existing OTC medication (generic: loperamide, brand: Immodium™) to be taken orally by patient suffering from gluten allergy/intolerance symptoms. The Loperamide is taken until the gluten allergy/intolerance symptoms are relieved.
The amount of loperamide needed to treat/prevent the symptoms of gluten intolerance can be quite a bit higher than the levels that can cause constipation. In that case, a slow increase in dosage may be necessary in order to create a resistance to the constipatory effects. Titration may be necessary to reach the proper dosage to eliminate the symptoms, starting preferably with the standard lowest dosage of loperamide recommended to treat diarrhea (2 mg tablet after the first loose stool, 1 tablet after each subsequent loose stool) and adding 1×2 mg tablet every 6 hours until stool consistency normalizes, at which point the symptoms of gluten intolerance will disappear completely, if it is the type of gluten intolerance that is treatable with loperamide. In the experience of the inventor, the rate of successfully treating/preventing gluten intolerance completely is 100%, as long as it is the type of gluten intolerance that responds to loperamide, and the proper daily dosage is adhered to once it is determined to be effective for the patient.

## CN(C)C(=O)C(CCN1CCC(O)(c2ccc(Cl)cc2)CC1)(c1ccccc1)c1ccccc1 [loperamide]
  rate of successfully treating/preventing gluten intolerance completely: 100%
